A word on the IC50: it is the concentration that inhibits the measured activity by half.

The test concerns the target T1, human HSL (Homo sapiens, UniProt Q05469).
T1 construct: overlapping PCR to generate a full length human HSL ORF with a 3′-His6 tag; His6 (C); made in house; host or cells: High 5 insect cells (baculovirus, pFast-BAC)
T1 sequence (Q05469 1-1076): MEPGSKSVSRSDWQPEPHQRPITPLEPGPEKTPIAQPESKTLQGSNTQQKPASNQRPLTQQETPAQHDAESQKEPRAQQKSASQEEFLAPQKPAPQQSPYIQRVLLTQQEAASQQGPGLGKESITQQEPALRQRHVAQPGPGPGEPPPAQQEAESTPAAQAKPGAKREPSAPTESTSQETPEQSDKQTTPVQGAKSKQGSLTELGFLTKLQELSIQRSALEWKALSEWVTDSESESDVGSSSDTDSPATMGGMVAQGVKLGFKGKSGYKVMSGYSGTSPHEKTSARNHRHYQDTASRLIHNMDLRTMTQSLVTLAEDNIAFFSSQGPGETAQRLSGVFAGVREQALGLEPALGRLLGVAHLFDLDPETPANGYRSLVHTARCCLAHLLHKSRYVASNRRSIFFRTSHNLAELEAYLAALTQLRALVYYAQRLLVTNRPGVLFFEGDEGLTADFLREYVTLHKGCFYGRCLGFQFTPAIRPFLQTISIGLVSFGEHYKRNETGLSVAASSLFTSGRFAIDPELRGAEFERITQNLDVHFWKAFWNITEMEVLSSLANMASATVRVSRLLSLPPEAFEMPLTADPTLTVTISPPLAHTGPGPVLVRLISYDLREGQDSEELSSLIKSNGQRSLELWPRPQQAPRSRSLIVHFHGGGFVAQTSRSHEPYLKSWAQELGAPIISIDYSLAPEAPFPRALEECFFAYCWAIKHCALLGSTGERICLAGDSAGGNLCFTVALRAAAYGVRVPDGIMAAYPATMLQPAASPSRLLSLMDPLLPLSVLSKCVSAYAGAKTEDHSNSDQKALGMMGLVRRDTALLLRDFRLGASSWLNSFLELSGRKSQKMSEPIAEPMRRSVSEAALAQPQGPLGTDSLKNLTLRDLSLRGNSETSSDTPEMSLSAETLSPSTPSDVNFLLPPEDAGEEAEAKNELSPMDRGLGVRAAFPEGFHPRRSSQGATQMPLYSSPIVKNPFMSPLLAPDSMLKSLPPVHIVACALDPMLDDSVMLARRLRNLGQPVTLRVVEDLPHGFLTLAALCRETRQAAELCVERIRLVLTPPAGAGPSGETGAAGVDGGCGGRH
The experiment in a line: Human hormone-sensitive lipase (HSL) enzyme inhibition assay (colorimetric, DMPT substrate). Type of test: biochemical. As to conditions: human full length HSL-His6; 2,3-dimercapto-1-propanol tributyrate substrate; 37° C., 20 minutes; read-out: HSL hum IC50. How it is done:
Production of Human Full Length Hormone Sensitive Lipase-His^6:
1) Cloning: cDNA was prepared from commercial human brain polyA+ RNA and used as a template in overlapping PCR to generate a full length human HSL ORF with a 3′-His6 tag. This full length insert was cloned into the pFast-BAC vector and the DNA-sequence of several single clones was verified. DNA from a correct full length clone with the 3′His6 tag was used to transform the E. coli strain DH10BAC. Resulting bacmid DNA was used to generate a titered baculovirus stock for protein generation. The sequence of the encoded HSL conforms to Swissprot entry Q05469, with the additional C-terminal His6-tag.
2) Protein purification: Culture: 5.5 L, High 5 cells expressing human full length HSL-His^6, 48 hr., containing 25 μM E-64. Cell count: […], 90% viable. Cells were thawed. On ice, cells were suspended in Base Buffer containing 10% glycerol, 25 mM Tris-Cl, 300 mM NaCl, 10 mM imidazole, 10 mM 2-mercaptoethanol, 2 μg pepstatin/ml, 2 μg leupeptin/ml, 2 μg antipain/ml, pH 8.0 at 4° C. in a final volume of 475 ml with 3.75×10^7 cells/ml. […] was done at 3×30 sec., Lubrol PX was added to 0.2% final concentration followed by stirring for 15 min. at 4° C. and centrifugation at 25 k×g, 60 min., 4° C. Soluble proteins were mixed with 60 ml of pre-washed and equilibrated Ni-NTA Agarose (Qiagen 30210) followed by tumbling end-over-end, 45 min., 4° C., centrifugation 1000 rpm 5 min and letting resin settle 5 min. Supernatant was removed, the resin washed in the centrifuge vessel using 5 volumes of Base Buffer containing 0.2% Lubrol PX. Centrifugation was done again, then the supernatant discarded. The resin was poured onto a 0.8 μm membrane in a disposable filter unit (Nalge 450-0080), and washed with 5 volumes of Base Buffer containing 0.2% Lubrol PX. It was then washed with 30 volumes of Base Buffer containing 60 mM imidazole pH 7.5 at 4° C. The protein was eluated with 5 volumes of 25 mM Tris-Cl, 300 mM NaCl, 200 mM imidazole, 10 mM 2-mercaptoethanol, pH 7.5 at 4° C. by tumbling resin with buffer end-over-end, 30 min., 4° C. The resin was captured on a 0.2 μm membrane disposable filter unit (Millipore SCGP U02 RE) and the eluate collected in the reservoir. The eluate was concentrated using a 30 k MWCO centrifugal filter device (Sartorius Vivascience Vivacell 100, VC1022), to 20 ml. It was then dialyzed overnight at 4° C., two times against 2 L of 10% glycerol, 25 mM Tris-Cl, 300 mM NaCl, 0.2 mM EDTA, 0.2 mM DTT, pH 7.5 at 4° C. The protein was filtered using a 0.22 μm disposable filter unit (Millipore SCGP00525). The protein concentration was calculated from absorbance at 280 nm, using 280=0.67 cm-1 mg-1. Yield was 235 mg, total. The protein was stored at −80° C.
Human Hormone-Sensitive Lipase (HSL) Enzyme Inhibition Assay:
HSL enzyme activity was measured by a colorimetric assay using 2,3-dimercapto-1-propanol tributyrate (Aldrich, St. Louis, Mo.) as a substrate. Typically, 1.5 mM 2,3-dimercapto-1-propanol tributyrate (DMPT) in 100 mM MOPS, pH 7.2, 0.2 mg/ml fatty acid-free BSA was prepared by sonication at 4° C. to homogenous suspension. Test compounds (2 mM stock in DMSO) were diluted 3 fold in series in DMSO. Compound solutions were diluted 24 fold in 1.5 mM DMPT containing solution and 18 ul per well was added to 384-well microplates (Corning Costar). Twelve microliters per well of human HSL (15 ug/ml) was added and the reaction mixture was incubated at 37° C. for 20 minutes. Six microliters of 12 mM dithio-bis-(2-nitrobenzoic acid) (DTNB) in DMSO plus 1.2% SDS and 0.6% Triton X-100 were added and the mixture was incubated at room temperature for 15 minutes. Product production was monitored by reading absorbance at 405 nm on an Envision Reader (PerkinElmer Life and Analytical Sciences, Shelton, Conn.).
Turning to `CC(Oc1ccc(NC(=O)C2CCN(C(=O)c3ccccc3Cl)CC2)cc1)C(F)(F)F` (racemic) [Example 44, (rac)-1-(2-Chloro-benzoyl)-piperidine-4-carboxylic acid [4-(2,2,2-trifluoro-1-methyl-ethoxy)-phenyl]-amide], the 50% inhibitory concentration (IC50) was 620 nM.

On to `Cc1ccc(S(=O)(=O)N2CCC(C(=O)Nc3ccc(OC(CO)C(F)(F)F)cc3)CC2)cc1` (racemic) [Example 45, (rac)-1-(Toluene-4-sulfonyl)-piperidine-4-carboxylic acid [4-(2,2,2-trifluoro-1-hydroxymethyl-ethoxy)-phenyl]-amide], for which the IC50 amounted to 150 nM.

`CC1(C(=O)Nc2ccc(OC(C)(C)C(F)(F)F)cc2)CCN(S(=O)(=O)c2ccccc2)CC1` (racemic) [Example 50, (rac)-1-Benzenesulfonyl-4-methyl-piperidine-4-carboxylic acid [4-(2,2,2-trifluoro-1,1-dimethyl-ethoxy)-phenyl]-amide]: the IC50 worked out at 810 nM.

Turning to `Cc1ccc(S(=O)(=O)N2CCC(C(=O)Nc3ccc(OCC(O)C(F)(F)F)cc3)CC2)cc1` (racemic) [Example 52, (rac)-1-(Toluene-4-sulfonyl)-piperidine-4-carboxylic acid [4-(3,3,3-trifluoro-2-hydroxy-propoxy)-phenyl]-amide], the 50% inhibitory concentration (IC50) was 860 nM.

Turning to `COC(COc1ccc(NC(=O)C2CCN(S(=O)(=O)c3ccc(C)cc3)CC2)cc1)C(F)(F)F` (racemic) [Example 53, (rac)-1-(Toluene-4-sulfonyl)-piperidine-4-carboxylic acid [4-(3,3,3-trifluoro-2-methoxy-propoxy)-phenyl]-amide], the IC50 was determined as 660 nM.

With `COCC(Oc1ccc(NC(=O)C2CCN(S(=O)(=O)c3ccc(C)cc3)CC2)cc1)C(F)(F)F` (racemic) [Example 54, (rac)-1-(Toluene-4-sulfonyl)-piperidine-4-carboxylic acid [4-(2,2,2-trifluoro-1-methoxymethyl-ethoxy)-phenyl]-amide], the IC50 worked out at 80 nM.

As to `Cc1ccc(S(=O)(=O)N2CCC(CO)(C(=O)Nc3ccc(OC(C)C(F)(F)F)cc3)CC2)cc1` (racemic) [Example 55, (rac)-4-Hydroxymethyl-1-(toluene-4-sulfonyl)-piperidine-4-carboxylic acid [4-(2,2,2-trifluoro-1-methyl-ethoxy)-phenyl]-amide], the 50% inhibitory concentration (IC50) worked out at 1420 nM.

With `Cc1ccc(S(=O)(=O)N2CCC(C(=O)Nc3ccc(OC(F)(F)F)cc3)CC2)cc1` [Example 1, 1-(Toluene-4-sulfonyl)-piperidine-4-carboxylic acid (4-trifluoromethoxy-phenyl)-amide], the IC50 came to 80 nM.

For `CC(C)c1ccc(NC(=O)C2CCN(S(=O)(=O)c3ccccc3)CC2)cn1` [Example 2, 1-Benzenesulfonyl-piperidine-4-carboxylic acid (6-isopropyl-pyridin-3-yl)-amide], the IC50 worked out at 240 nM.

As for `COc1ccc(NC(=O)C2CCN(S(=O)(=O)c3ccccc3)CC2)nn1` [Example 3, 1-Benzenesulfonyl-piperidine-4-carboxylic acid (6-methoxy-pyridazin-3-yl)-amide], the IC50 worked out at 12000 nM.

With `Cc1ccc(S(=O)(=O)N2CCC(C(=O)Nc3ccc(OC(C)C)cc3)CC2)cc1` [Example 7, 1-(Toluene-4-sulfonyl)-piperidine-4-carboxylic acid (4-isopropoxy-phenyl)-amide], the IC50 is 70 nM.

Turning to `CC(C)c1ccc(NC(=O)C2CCN(C(=O)CC3CC3)CC2)cc1` [Example 8, 1-(2-Cyclopropyl-acetyl)-piperidine-4-carboxylic acid (4-isopropyl-phenyl)-amide], the concentration for half-maximal inhibition (IC50) came out at 800 nM.

As to `CC(C)c1ccc(NC(=O)C2CCN(C(=O)CCC3CC3)CC2)cc1` [Example 9, 1-(3-Cyclopropyl-propionyl)-piperidine-4-carboxylic acid (4-isopropyl-phenyl)-amide], the IC50 came to 350 nM.

On to `CC(C)c1ccc(NC(=O)C2CCN(C(=O)CC(C)(C)C)CC2)cc1` [Example 10], for which the IC50 turned out to be 200 nM.

As for `COCCCC1(C(=O)Nc2ccc(OC(C)C)cc2)CCN(S(=O)(=O)c2ccccc2)CC1` [Example 12, 1-Benzenesulfonyl-4-(3-methoxy-propyl)-piperidine-4-carboxylic acid (4-isopropoxy-phenyl)-amide], the IC50 was determined as 920 nM.

`Cc1ccc(S(=O)(=O)N2CCC(C(=O)Nc3ccc(OC(F)F)cc3)CC2)cc1` [Example 13, 1-(Toluene-4-sulfonyl)-piperidine-4-carboxylic acid (4-difluoromethoxy-phenyl)-amide]: the IC50 worked out at 120 nM.

Consider `Cc1ccc(S(=O)(=O)N2CCC(C(=O)Nc3ccc(OCC(F)(F)F)cc3)CC2)cc1` [Example 14, 1-(Toluene-4-sulfonyl)-piperidine-4-carboxylic acid [4-(2,2,2-trifluoro-ethoxy)-phenyl]-amide], for which the IC50 came out at 160 nM.

Consider `Cc1ccc(S(=O)(=O)N2CCC(C(=O)Nc3ccc(OC(C)C)cc3F)CC2)cc1` [Example 15, 1-(Toluene-4-sulfonyl)-piperidine-4-carboxylic acid (2-fluoro-4-isopropoxy-phenyl)-amide], for which the concentration for half-maximal inhibition (IC50) amounted to 470 nM.

Turning to `Cc1ccc(S(=O)(=O)N2CCC(C(=O)N(C)c3ccc(OC(F)(F)F)cc3)CC2)cc1` [Example 16, 1-(Toluene-4-sulfonyl)-piperidine-4-carboxylic acid methyl-(4-trifluoromethoxy-phenyl)-amide], the IC50 came to 40 nM.

These data come from patent US8258158B2 (Hoffmann-La Roche Inc., priority 2009, dated 2012).
